One block for each compound: values may come before it.
What was measured:
[1] = tested on: HCT116 cells; test: MTT cell proliferation assay; format: cell-based, human; details: 24, 48 or 72 h, PEPD^G278D 5-250 nM, cetuximab 2.75-275 nM, panitumumab 2.77-277 nM
Protocol: (§1) Cells were grown in 96-well plates. […] The cells were then washed with PBS and mixed with dimethyl sulfoxide (150 μl per well), and cell density was determined by measuring the reduction of MTT to formazan spectroscopically at 570 nm using a Synergy 2 Multi-Mode Microplate Reader (BioTek). In experiments involving siRNA transfection, 2×10^3 HCT116 cells or 6×10^3 HT29 cells were seeded to each well of 96-well plates overnight and then transfected 25 nM siRNA (scramble siRNA, EGFR siRNA or HER2 siRNA) as described above, followed by MTT assay.

[2] = tested on: SW48 cells; test: MTT cell proliferation assay; format: cell-based, human; details: 24, 48 or 72 h, PEPD^G278D 5-250 nM, cetuximab 2.75-275 nM, panitumumab 2.77-277 nM
Protocol: as §1

[3] = tested on: HT29 cells; test: MTT cell proliferation assay; format: cell-based, human; details: 24, 48 or 72 h, PEPD^G278D 5-250 nM, cetuximab 2.75-275 nM, panitumumab 2.77-277 nM
Protocol: as §1

[4] = tested on: HER3, MET, IGF1R, SRC, AKT, ERK, MEK; test: Western blotting of whole cell lysates: other RTKs and downstream signaling proteins; format: cell-based, human; details: HCT116, HT29 and SW620 cells; 275-277 nM, 48 h
Protocol: (§2) To prepare whole cell lysates, cells were washed with PBS twice, mixed with 1× cell lysis buffer from Cell Signaling Technology supplemented with 2 mM PMSF and a protease inhibitor cocktail from Roche Applied Science, placed on ice for 10 min, sonicated at 0-4° C. to enhance cell lysis using a Branson Model 450 sonifier, and finally centrifuged at 13,000 g for 10 min at 4° C., and the supernatant fraction is collected as whole cell lysate. Tumor and samples were mixed with RIPA buffer (25 mM Tris-HCl, PH7.6, 150 mM NaCl, 1% Nonidet P-40, 1% sodium deoxycholate, and 0.1% SDS), which was supplemented with 2 mM PMSF, the protease inhibitor cocktail mentioned above, phosphatase inhibitor cocktail 2 and phosphatase inhibitor cocktail 3 from Sigma-Aldrich at 14.3 μl buffer per mg tissue, and homogenized in a Dounce homogenizer. The homogenates were cleared by centrifugation at 13,000 g for 15 min at 4° C.
(§3) Protein concentrations in all samples were measured using the BCA Assay Kit. For Western blotting, each sample was mixed with 4× loading dye, heated for 5 min at 95° C., and resolved by SDS-PAGE (8-12.5%). Proteins were transferred to polyvinylidene fluoride membrane, probed with specific antibodies, and detected using either Luminata Classico (Millipore) or Luminata Cresendo (Millipore). For IP, cell lysates (0.5 mg protein/sample) were incubated with a desired antibody overnight at 4° C., followed by incubation of 500 μl sample with 30 μl G-Sepharose beads (2 mg/ml) for 1 h at RT. The beads were washed three times with IP buffer, suspended in 2× SDS loading buffer, boiled for 5 min, and analyzed by Western blotting.

[5] = tested on: HER3, IGF1R, MET, SRC, AKT, ERK, MEK, NRAS, HRAS, caspase 3; test: Western blotting of tumor homogenates: other signaling proteins; format: in vivo, mouse; details: HCT116 and HT29 tumors; single agent
Protocol: as §2
as §3, with “For IP, cell lysates (0.5 mg protein/sample) were incubated with a desired antibody overnight at 4° C., followed by incubation of 500 μl sample with 30 μl G-Sepharose beads (2 mg/ml) for 1 h at RT.” left out
SCID mice (C.B.17 SCID) were bred by the Laboratory Animal Shared Resource at Roswell Park Comprehensive Cancer Center. […] Subcutaneous tumor volume was measured using length ×width^2÷2. Tumor volume was measured three times each week. Orthotopic tumor growth was monitored by bioluminescence weekly. Mice were given D-luciferin (150 mg/kg) by ip and anesthetized with isoflurane, and tumor burden was measured by bioluminescence using the IVIS Spectrum In Vivo Imaging System (PerkinElmer). Drug treatment was started when significant tumor growth was detected. […] The mice were closely monitored for sign of adverse effects and weighed three times each week.

[6] = biological target: T1, EGFR and HER2 (Homo sapiens, UniProt P00533); test: Western blotting of whole cell lysates: EGFR and HER2; format: cell-based; details: HB-EGF 20 ng/ml in medium without serum
T1 construct: Both EGFR and HER2 were expressed in HCT116, HT29, and SW48 cells; endogenous in cells; host or cells: HCT116, HT29, SW48 (SW620 lacks both)
Protocol: as §2, §3

[7] = tested on: EGFR and HER2; test: as above; format: cell-based, human; details: HB-EGF 20 ng/ml alone, without PEPD^G278D and FBS
Protocol: as §2, §3

[8] = tested on: HCT116 tumors; test: Subcutaneous HCT116 tumors in SCID mice; format: in vivo, mouse; details: sc HCT116 tumors; 5-FU 35 mg/kg ip every 3-4 days, alone or with EP and PEPD^G278D 4 mg/kg, without aderbasib (FIG. 14)
Protocol: SCID mice (C.B.17 SCID) were bred by the Laboratory Animal Shared Resource at Roswell Park Comprehensive Cancer Center. Male mice at 7-8 weeks of age were used. All mouse experiments were approved by the Institutional Animal Care and Use Committee at Roswell Park Comprehensive Cancer Center under protocol 1022M. We established subcutaneous tumors by inoculating 1×10^6 HCT116 cells, 4×10^6 HT29 cells, or 2×10^6 SW48 cells to the flank of each mouse in 100 μl of serum free medium. Colon patient-derived xenograft (PDX) 14650 was established from a liver metastatic lesion in a patient treated at Roswell Park Comprehensive Cancer Center. Tumor fragments (˜20 mm^3) from donor mice were implanted into the flank of each mouse subcutaneously using a trocar. Orthotopic colon tumors in mice were established by inoculating HCT116 cells stably transfected with firefly luciferase (2×10^6 cells in 50 μl of 50% serum-free medium and 50% Matrigel) to the caecum wall of each mouse. Mice in each tumor model were randomized cage-wise into treatment groups using Research Randomizer (www.randomizer.org). Subcutaneous tumor volume was measured using length ×width^2÷2. Tumor volume was measured three times each week. Orthotopic tumor growth was monitored by bioluminescence weekly. Mice were given D-luciferin (150 mg/kg) by ip and anesthetized with isoflurane, and tumor burden was measured by bioluminescence using the IVIS Spectrum In Vivo Imaging System (PerkinElmer). Drug treatment was started when significant tumor growth was detected. EP (0.5 mg/kg) was administered to mice ip once daily. […] Aderbasib (60 mg/kg) was administered to mice by gavage once daily. 5-FU (35 mg/kg) was administered to mice ip twice weekly (Monday and Thursday). EP, PEPD^G278D and 5-FU were administered to mice in PBS. Aderbasib was first dissolved in DMSO and then diluted by PBS (final 5% DMSO by volume). Each agent was administered to mice at 0.1 ml volume per 20 g body weight. When a mouse was given multiple agents on the same day, the agents were dosed at approximately 30 min intervals. The mice were closely monitored for sign of adverse effects and weighed three times each week. Mice were sacrificed 24-48 hours after the last treatment, at which point the tumors were promptly removed, snap frozen and stored at −80° C. for later analysis. Some tumors were fixed in 10% buffered formalin, paraffin embedded, cut at 4 μm, and stained with hematoxylin and eosin (H & E) for histological analysis.

[9] = Monitoring of mice for signs of adverse effects; format: in vivo; details: mouse, in vivo, ip, 35 mg/kg
Protocol: SCID mice (C.B.17 SCID) were bred by the Laboratory Animal Shared Resource at Roswell Park Comprehensive Cancer Center. Male mice at 7-8 weeks of age were used. All mouse experiments were approved by the Institutional Animal Care and Use Committee at Roswell Park Comprehensive Cancer Center under protocol 1022M. We established subcutaneous tumors by inoculating 1×10^6 HCT116 cells, 4×10^6 HT29 cells, or 2×10^6 SW48 cells to the flank of each mouse in 100 μl of serum free medium. Colon patient-derived xenograft (PDX) 14650 was established from a liver metastatic lesion in a patient treated at Roswell Park Comprehensive Cancer Center. Tumor fragments (˜20 mm^3) from donor mice were implanted into the flank of each mouse subcutaneously using a trocar. […] Subcutaneous tumor volume was measured using length ×width^2÷2. Tumor volume was measured three times each week. Orthotopic tumor growth was monitored by bioluminescence weekly. Mice were given D-luciferin (150 mg/kg) by ip and anesthetized with isoflurane, and tumor burden was measured by bioluminescence using the IVIS Spectrum In Vivo Imaging System (PerkinElmer). Drug treatment was started when significant tumor growth was detected. […] The mice were closely monitored for sign of adverse effects and weighed three times each week. […]

[10] = tested on: HT29 tumors; test: Subcutaneous HT29 tumors in SCID mice; format: in vivo, mouse; details: sc HT29 tumors; 5-FU 35 mg/kg ip every 4 days (FIG. 14)
Protocol: SCID mice (C.B.17 SCID) were bred by the Laboratory Animal Shared Resource at Roswell Park Comprehensive Cancer Center. Male mice at 7-8 weeks of age were used. All mouse experiments were approved by the Institutional Animal Care and Use Committee at Roswell Park Comprehensive Cancer Center under protocol 1022M. We established subcutaneous tumors by inoculating 1×10^6 HCT116 cells, 4×10^6 HT29 cells, or 2×10^6 SW48 cells to the flank of each mouse in 100 μl of serum free medium. Colon patient-derived xenograft (PDX) 14650 was established from a liver metastatic lesion in a patient treated at Roswell Park Comprehensive Cancer Center. Tumor fragments (˜20 mm^3) from donor mice were implanted into the flank of each mouse subcutaneously using a trocar. Orthotopic colon tumors in mice were established by inoculating HCT116 cells stably transfected with firefly luciferase (2×10^6 cells in 50 μl of 50% serum-free medium and 50% Matrigel) to the caecum wall of each mouse. Mice in each tumor model were randomized cage-wise into treatment groups using Research Randomizer (www.randomizer.org). Subcutaneous tumor volume was measured using length ×width^2÷2. Tumor volume was measured three times each week. Orthotopic tumor growth was monitored by bioluminescence weekly. Mice were given D-luciferin (150 mg/kg) by ip and anesthetized with isoflurane, and tumor burden was measured by bioluminescence using the IVIS Spectrum In Vivo Imaging System (PerkinElmer). Drug treatment was started when significant tumor growth was detected. EP (0.5 mg/kg) was administered to mice ip once daily. PEPD^G278D (4 mg/kg) was administered to mice ip thrice weekly (Monday, Wednesday, Friday). Aderbasib (60 mg/kg) was administered to mice by gavage once daily. 5-FU (35 mg/kg) was administered to mice ip twice weekly (Monday and Thursday). EP, PEPD^G278D and 5-FU were administered to mice in PBS. Aderbasib was first dissolved in DMSO and then diluted by PBS (final 5% DMSO by volume). […] The mice were closely monitored for sign of adverse effects and weighed three times each week. […]

[11] = tested on: EGFR; test: Immunofluorescence staining and confocal microscopy of EGFR trafficking in SW48 cells; format: cell-based, human; details: chloroquine 25 μM plus PEPD^G278D 25 nM
Protocol: SW48 cells were grown in chamber slides (4×10^4 cells/well) overnight with or without subsequent treatment with PEPD^G278D (25 nM) and/or chloroquine (25 μM) for up to 6 h. The cells were then washed with ice-cold PBS, fixed with 4% paraformaldehyde for 20 min at room temperature (RT), washed again with ice-cold PBS and blocked with 1% BSA in PBS for 1 h at RT. The cells were then incubated with an EGFR antibody, a His tag antibody for detection of PEPD^G278D, and/or a LAMP1 antibody overnight at 4° C., washed with PBS, incubated with a secondary antibody conjugated to Alexa-Fluor 488 or Alexa-Fluor 647 antibody for 1 h at RT and washed again with PBS. The cells were then examined with a BZ-X700 fluorescence microscope (Keyence) with a S PL FL ELWD ADM 40xC objective. Merged images from Z-stack were organized using the ImageJ software (NIH Image).

Compound: panitumumab [reference compound]
- cell growth measured by MTT assay [1]: neither agent is active
- cell growth measured by MTT assay [2]: inhibited the growth of SW48 cells in a time- and concentration-dependent manner
- cell growth measured by MTT assay [3]: neither agent is active
- effect on MET and ERK [4]: neither cetuximab nor panitumumab had any effect

Compound: enoxaparin [EP]
- expression or phosphorylation of the proteins analyzed in tumors [5]: neither EP nor aderbasib had any effect

- effect on EGFR depletion induced by PEPD^G278D [6]: mimicked the effect of serum
Compound: HB-EGF: recombinant human HB-EGF, a high affinity EGFR ligand [reference compound]
- expression of EGFR or HER2 [7]: did not modulate the expression

Compound: O=c1[nH]cc(F)c(=O)[nH]1 [5-FU, fluorouracil]
- tumor growth [8]: ineffective
- toxicity in a dose-finding experiment [9]: not toxic
- tumor growth [10]: ineffective

Compound: CCN(CC)CCCC(C)Nc1ccnc2cc(Cl)ccc12 (centres unmarked) [chloroquine, reference compound]
- EGFR degradation induced by PEPD^G278D [11]: blocked EGFR degradation

From US20250009852A1, “DEPLETING EGFR AND HER2 OVERCOMES RESISTANCE TO EGFR INHIBITORS IN COLORECTAL CANCER” (Health Research, Inc., priority 2021, published 2025)
